US9522913B2, “Pesticidally active bicyclic heterocycles with sulphur containing substituents” (Syngenta Participations AG, priority 2013, dated 2016)

Assays:
Format in all cases: in vivo
[1] = tested on: Diabrotica balteata (corn root worm); assay: Activity against Diabrotica balteata, larvicide, feeding/residual contact activity, preventive (Example B2); settings: 120 h, maize sprouts sprayed, L2 larvae, 5 days incubation, read-out: activity (larval mortality, growth regulation)
Description: (§1) (Larvicide, Feeding/Residual Contact Activity, Preventive)
Maize sprouts, placed on an agar layer in 24-well micro titer plates (MTP) are treated with test solutions by spraying. After drying, the MTPs are infested with larvae (L2, 6-10 per well). After an incubation period of 5 days, samples are checked for larval mortality, and growth regulation.

[2] = tested on: Spodoptera littoralis (Egyptian cotton leaf worm); assay: Activity against Spodoptera littoralis, larvicide, feeding/residual contact activity, preventive (Example B1); settings: foliar, 72 h, cotton leaf discs sprayed, L1 larvae, 3 days after treatment, read-out: activity (mortality, repellent effect, feeding behaviour, growth regulation)
Text: (Larvicide, Feeding/Residual Contact Activity, Preventive) Cotton leaf discs are placed on agar in a 24-well microtiter plate and sprayed with test solutions. After drying, the leaf discs are infested with 5 L1 larvae. The samples are checked for mortality, repellent effect, feeding behaviour, and growth regulation 3 days after treatment (DAT).

[3] = tested on: Spodoptera littoralis (Egyptian cotton leaf worm); assay: Activity against Spodoptera littoralis, systemic activity (Example B3); settings: 120 h, systemic via lettuce roots in agar, 5 days after infestation, read-out: activity (mortality, repellent effect, feeding behavior, growth regulation)
Text: Test compounds were applied by pipette into 24 well plates and mixed with agar. Lettuce seeds were placed on the agar and the multi well plate is closed by another plate which contains also agar. After 7 days the roots have absorbed the compound and the lettuce has grown into the lid plate. The lettuce leaves were now cut off into the lid plate. Spodoptera eggs were pipetted through a plastic stencil on a humid gel blotting paper and the plate closed with it. The samples are checked for mortality, repellent effect, feeding behavior, and growth regulation 5 days after infestation.

[4] = tested on: Plutella xylostella (diamond back moth); assay: Activity against Plutella xylostella, larvicide, feeding/residual contact activity, preventive (Example B4); settings: 120 h, artificial diet, L2 larvae, 5 days incubation, read-out: activity (larval mortality, antifeedant, growth regulation)
Description: as §1
24-well microtiter plate (MTP) with artificial diet was treated with test solutions by pipetting. After drying, the MTPs were infested with L2 larvae (10-15 per well). After an incubation period of 5 days, samples were checked for larval mortality, antifeedant and growth regulation.

[5] = tested on: Myzus persicae (green peach aphid); assay: Activity against Myzus persicae, feeding/residual contact activity, preventive, mixed population (Example B5); settings: foliar, 144 h, sunflower leaf discs sprayed, mixed-age aphids, 6 DAT
Description: (Feeding/Residual Contact Activity, Preventive), Mixed Population
Sunflower leaf discs were placed on agar in a 24-well microtiter plate and sprayed with test solutions.
After drying, the leaf discs were infested with an aphid population of mixed ages. After an incubation period of 6 DAT, samples were checked for mortality and special effects (e.g. phytotoxicity).

[6] = tested on: Myzus persicae (green peach aphid); assay: Activity against Myzus persicae, systemic/feeding activity, curative, mixed population (Example B6); settings: 144 h, roots of infested pea seedlings in test solution, 6 days after introduction
Text: (Systemic/Feeding Activity, Curative), Mixed Population
Roots of pea seedlings, infested with an aphid population of mixed ages, were placed directly in the test solutions. 6 days after introduction, samples were checked for mortality and special effects on the plant.

[7] = tested on: Aedes aegypti (yellow fever mosquito); assay: whole plant or invertebrate; settings: after 48 h, application rate of 200 ppm in ethanol, adult females, read-out: control of Aedes aegypti (mortality)
Description: Test solutions, at an application rate of 200 ppm in ethanol, were applied to 12-well tissue culture plates. Once the deposits were dry, five, two to five days old adult female Aedes aegypti were added to each well, and sustained with a 10% sucrose solution in a cotton wool plug. Assessment of knockdown was made one hour after introduction, and mortality was assessed at 24 and 48 hours after introduction.

[8] = tested on: Bemisia tabaci (cotton white fly); assay: Activity against Bemisia tabaci, adulticide contact activity, preventative (Example B7); settings: foliar, 168 h, cotton leaf discs sprayed, adult white flies, 7 DAT
Description: (Adulticide Contact Activity, Preventative), Adult
Cotton leaf discs were placed on agar in a 24-well microtiter plate and sprayed with test solutions. After drying, the leaf discs were infested with adult white flies. After an incubation period of 7 DAT, samples were checked for mortality and special effects (e.g. phytotoxicity).

[9] = tested on: Rhopalosiphum padi (bird cherry oat aphid); assay: Seed treatment activity against Rhopalosiphum padi on barley (Example B8); settings: after 28 days, initial loading of 0.3 mg a.i. per seed
Description: Seed Treatment Activity Against Rhopalosiphum padi (Bird Cherry Oat Aphid) (Seed Treatment Systemic/Feeding Activity on Barley, Preventive, Initial and Residual Activity (Infestation 2 and 4 Weeks after Sowing)), Mixed Population
A treated barley seed is sown in a 350 ml pot filled with soil. Two weeks after sowing phytotoxicity is estimated and expressed in percentage compared to the control. Furthermore the barley seedling is infested with an aphid population of mixed stages. After an incubation period of seven days the grade of efficacy compared to the control is estimated and expressed in percentage. Treatments with all replicates having a level of efficacy over 90% are re-infested with aphids 28 days after sowing for determination of residual activity. Assessment procedures remain the same as described above.

SMILES: CC/S(=N\C#N)c1cc(C(F)(F)F)cnc1-c1nc2cc(C(F)(F)F)cnc2n1C (stereo not shown) [P1.1, [ethyl-[2-[3-methyl-6-(trifluoromethyl)imidazo[4,5-b]pyridin-2-yl]-5-(trifluoromethyl)-3-pyridyl]-λ^4-sulfanylidene]cyanamide]
- mortality at 400 ppm [1]: > 80%

SMILES: CCS(=O)(=NC#N)c1cc(C(F)(F)F)cnc1-c1nc2cc(C(F)(F)F)cnc2n1C (stereo not shown) [P1.2, [ethyl-[2-[3-methyl-6-(trifluoromethyl)imidazo[4,5-b]pyridin-2-yl]-5-(trifluoromethyl)-3-pyridyl]-oxo-λ^6sulfanylidene]cyanamide]
- mortality at 400 ppm [2]: > 80%
- mortality at 400 ppm [1]: > 80%

SMILES: CCS(=O)(=NC(=O)C(F)(F)F)c1cc(C(F)(F)F)cnc1-c1nc2cc(C(F)(F)F)cnc2n1C (stereo not shown) [P1.3, N-[ethyl-[2-[3-methyl-6-(trifluoromethyl)imidazo[4,5-b]pyridin-2-yl]-5-(trifluoromethyl)-3-pyridyl]-oxo-λ^6-sulfanylidene]-2,2,2-trifluoro-acetamide]
- mortality at 400 ppm [2]: > 80%
- mortality at 400 ppm [1]: > 80%
- mortality at 12.5 ppm [3]: ≥ 80%
- mortality at 400 ppm [4]: > 80%
- mortality at 400 ppm [5]: > 80%
- mortality at 24 ppm [6]: ≥ 80%
- mortality at 200 ppm [7]: ≥ 80%

SMILES: CCS(=N)(=O)c1cc(C(F)(F)F)cnc1-c1nc2cc(C(F)(F)F)cnc2n1C (stereo not shown) [P1.4, ethyl-imino-[2-[3-methyl-6-(trifluoromethyl)imidazo[4,5-b]pyridin-2-yl]-5-(trifluoromethyl)-3-pyridyl]-oxo-λ^6-sulfane]
- mortality at 400 ppm [2]: > 80%
- mortality at 12.5 ppm [3]: ≥ 80%
- mortality at 400 ppm [4]: > 80%
- mortality at 400 ppm [5]: > 80%
- mortality at 24 ppm [6]: ≥ 80%
- mortality at 400 ppm [8]: > 80%
- control of Rhopalosiphum padi (efficacy compared to the control) [9]: at least 80%

SMILES: CCS(=O)(=NC(N)=O)c1cc(C(F)(F)F)cnc1-c1nc2cc(C(F)(F)F)cnc2n1C (stereo not shown) [P1.5, [ethyl-[2-[3-methyl-6-(trifluoromethyl)imidazo[4,5-b]pyridin-2-yl]-5-(trifluoromethyl)-3-pyridyl]-oxo-λ^6sulfanylidene]urea]
- mortality at 400 ppm [1]: > 80%
- mortality at 200 ppm [7]: ≥ 80%

SMILES: CCS(=O)(=NC)c1cc(C(F)(F)F)cnc1-c1nc2cc(C(F)(F)F)cnc2n1C (stereo not shown) [P1.6, ethyl-methylimino-[2-[3-methyl-6-(trifluoromethyl)imidazo[4,5-b]pyridin-2-yl]-5-(trifluoromethyl)-3-pyridyl]-oxo-λ^6-sulfane]
- mortality at 400 ppm [2]: > 80%
- mortality at 400 ppm [1]: > 80%
- mortality at 12.5 ppm [3]: ≥ 80%
- mortality at 400 ppm [4]: > 80%
- mortality at 400 ppm [5]: > 80%
- mortality at 24 ppm [6]: ≥ 80%
- mortality at 400 ppm [8]: > 80%
- mortality at 200 ppm [7]: ≥ 80%

SMILES: CCC(=O)N=S(=O)(CC)c1cc(C(F)(F)F)cnc1-c1nc2cc(C(F)(F)F)cnc2n1C (stereo not shown) [P1.7, N-[ethyl-[2-[3-methyl-6-(trifluoromethyl)imidazo[4,5-b]pyridin-2-yl]-5-(trifluoromethyl)-3-pyridyl]-oxo-λ^6-sulfanylidene]propanamide]
- mortality at 400 ppm [2]: > 80%
- mortality at 12.5 ppm [3]: ≥ 80%
- mortality at 400 ppm [4]: > 80%
- mortality at 400 ppm [5]: > 80%
- mortality at 400 ppm [8]: > 80%
- mortality at 200 ppm [7]: ≥ 80%

SMILES: CCS(=O)(=NC(=O)OC)c1cc(C(F)(F)F)cnc1-c1nc2cc(C(F)(F)F)cnc2n1C (stereo not shown) [P1.8, methyl N-[ethyl-[2-[3-methyl-6-(trifluoromethyl)imidazo[4,5-b]pyridin-2-yl]-5-(trifluoromethyl)-3-pyridyl]-oxo-λ^6-sulfanylidene]carbamate]
- mortality at 400 ppm [2]: > 80%
- mortality at 12.5 ppm [3]: ≥ 80%
- mortality at 400 ppm [4]: > 80%
- mortality at 400 ppm [5]: > 80%
- mortality at 24 ppm [6]: ≥ 80%
- mortality at 400 ppm [8]: > 80%
- mortality at 200 ppm [7]: ≥ 80%

SMILES: CCS(=O)(=NC=O)c1cc(C(F)(F)F)cnc1-c1nc2cc(C(F)(F)F)cnc2n1C (stereo not shown) [P1.10, N-[ethyl-[2-[3-methyl-6-(trifluoromethyl)imidazo[4,5-b]pyridin-2-yl]-5-(trifluoromethyl)-3-pyridyl]-oxo-λ^6sulfanylidene]formamide]
- mortality at 400 ppm [2]: > 80%
- mortality at 12.5 ppm [3]: ≥ 80%
- mortality at 400 ppm [4]: > 80%
- mortality at 400 ppm [5]: > 80%
- mortality at 24 ppm [6]: ≥ 80%
- mortality at 400 ppm [8]: > 80%
